Source: patent US12247018B2, “Aryl-n-aryl derivatives for treating a RNA virus infection” (ABIVAX, priority 2018, dated 2025)

Legend:
[1] = tested on: CHIKV strain of La Réunion outbreak (LR2006-OPY1) with GFP modification in 5′; assay: microbe, parasite or virus in culture; type: cell-based, Chikungunya virus; settings: infected HEK293T cells; for inhibition at 1 µM / IC50: Chikungunya virus, HEK-293T; for inhibition at 1 µM: compounds at 1 μM, MOI 0.1, 22 h, values above 100 lowered to 100, read-out: % CHIKV Inhibition Mean (n = 2); for IC50: second round of experiments
Description: The ability of the compounds to inhibit viral replication was assessed with an experiment in which infected cells were treated by compounds of formula (Ic) at 1 μM. As a positive control for inhibition of Chikungunya, Ribavirin was used. Toxicity of the compounds was assessed in parallel.
Human embryonic kidney cells 293T (HEK293T, CRL-11268) were maintained in Dulbecco's modified Eagle's Medium (DMEM, 31966-021, Thermo Fisher Scientific) supplemented with 10% of fetal bovine serum (FBS), penicillin and streptomycin. After removal of the medium, cells were washed with Ca^2+ and Mg^2+-free salt solution to remove all traces of serum. After aspiration of wash solution, cells were dissociated with 0.25% Trypsin-EDTA solution and incubated 30 s at least in 37° C. incubator. Concentration of cell suspension was determined by an automatic cell counter (EVE, NanoEntek) and, if needed, adjusted to 0.33×10^6 cells/mL with DMEM medium supplemented with 10% FBS.
100 μL of the cell suspension were dispatched in a ViewPlate-96 Black (6005182, PerkinElmer) and in a transparent 96-well cell culture plate (655180, Greiner bio-one). After an incubation for 24 h at 37° C. under 5% of CO2, compounds were added at the proper concentration.
An intermediate dilution was prepared with DMSO (D8418, Sigma) at 2 mM in a 96-well V-bottom microplate from the stock solution:
An intermediate dilution was prepared with DMSO (D8418, Sigma) at 25 mM in a 96-well V-bottom microplate from the stock solution:
Perform serial dilution in 2 μL of DMSO 13 times to reach 0.0015 mM. Proceed as follows in table III:
For both screen and determination of IC50, 1 μL of each solution was added in a 1 mL Masterblock 96 wells (Greiner bio-one, 780261) containing 1 mL of DMEM medium. As a positive control, 5 μL of a 80 mM Ribavirin solution (R9644, Sigma) is added to 1 mL of DMEM. On the other hand, DMSO is used as a negative control.
[…]. Vector Borne Zoonotic Dis. 2006; 6 (4)). This modified virus was used to infect cells at MOI 0.1. […].
Medium was removed after 22 h at 37° C. under 5% of CO2 and cells were washed as described above. 60 μL of RIPA buffer (50 mM Tris-HCl pH8, 100 mM NaCl, 1 mM MgCl2, 1% Triton X-100) was added to cells and incubated for at least 20 min before reading fluorescence signal. Pierce 660 nm Protein Assay Reagent (22660, Thermo scientific) was used to normalize fluorescence signal by protein quantity.
• A first round of experiments has been performed wherein the results are expressed as inhibition percentage, which is calculated as follows, through the following steps: • 1. Fluorescence intensity (FI)/Absorbance 660 nm (A660)=A • This ratio allows considering the infection (GFP virus) to the protein amount. • 2. A′=A−background noise of non-infected plate, • 3. B=Fluorescence intensity (FI)/Absorbance 660 nm (A660) of infected but non treated plates, • 4. C=A′/B, which is then converted as the percentage of infection after treatment, compared to non-treated sample, and subsequently as the infection percentage. For instance, a value of 100 in Table IV here below means that, after treatment, the signal attributed to GFP fluorescence is abolished, which is correlated to the absence of infection. • 5. C′=100-C
This value corresponds to the inhibition's percentage.
The following Table IV encompasses said C′ value for some compounds, as calculated above with a mean of 2 experiments, and corresponding standard deviation.
Some values were originally above 100. In these cases, the value has been lowered to 100. This means that some molecules also have an impact on the viability of the cells. In other words, the A value may be lower than the background noise.
Moreover, for each measure, the test was performed with Ribavirin as control. The value of the inhibition percentage was checked, giving 100%.

[2] = tested on: RSV A2; assay: RSV inhibition (cytopathic effect) in HEp-2 cells using Viral ToxGlo assay; type: cell-based; settings: human respiratory syncytial virus; RSV A2, HEp-2 cells, MOI 0.5, 72 h p.i.
Description: Protocol for Screening Antiviral Compounds for RSV Inhibition and Cytotoxicity Using Viral ToxGlo Assay
HEp-2 cells were maintained in Eagle's minimum essential medium (EMEM) with Earle's BSS adjusted to contain 2 mM L-glutamine, 10% fetal bovine serum, 100 U/ml penicillin and 100 μg/ml streptomycin. For the purposes of the screening assay they were grown to 90% confluency, trypsinized and recovered. The trypsin was neutralised with cell culture media and cells were centrifuged at 150×g for 5 minutes before discarding the supernatant and resuspending cell pellet in assay media (EMEM with Earle's BSS adjusted to contain 2 mM L-glutamine, 2% fetal bovine serum and 100 U/ml penicillin and 100 μg/ml streptomycin). The cells were seeded into white clear-bottomed cell culture plates at a density of 1.5×10^4 cells/well in 50 μl and 4×10^3 cells/well in 25 μl for 96 well plates and 384 well plates respectively. For the media/background control column assay media only was added. Cell plates were placed in a humid chamber and incubated overnight at 37° C./5% CO2. After overnight incubation cells were checked for confluency and healthy appearance.
Test articles were made up at 10× test concentration in a maximum DMSO concentration of 10% (final assay concentration maximal 1% DMSO) and added to the cell plates in volumes of 10 μl for 96 well plates and 5 μl for 384 well plates. For cell control and virus control wells the test article solvent only was added. Virus or assay media for cytotoxicity test wells and media/cell control wells was added immediately after test articles at an MOI of 0.5, 40 or 20 μl for 96 and 384 well plates respectively. Virus suspension was prepared by thawing RSV A2 frozen stocks and diluting to the required concentration of plaque forming units in assay media on ice.
Cell plates were further incubated inside a humid chamber for 72 h p.i at 37° C./5% CO2. After the incubation period cells were observed under the microscope to check for characteristic cytopathic effect in virus control wells and healthy cells in the cell control wells. After plates were adjusted to room temperature 20/40 μl Viral ToxGlo (Promega) was added to each well of the 384/96 well cell plates. Plates were incubated at room temperature, protected from light on a plate rocker for 20 minutes before measuring the luminescence on a spectrophotometer (Biotek Synergy HTX).

| SMILES | inhibition at 1 µM [1] [%] | EC50 [2] [µM] | also measured |
| --- | --- | --- | --- |
| CC(C)CCNC(=O)c1cccc(Nc2ccc(C(=O)N=C3NCCCN3)cc2)c1 [compound 23, N-isopentyl-3-((4-((tetrahydropyrimidin-2(1H)-ylidene)carbamoyl)phenyl)amino)benzamide] | 98 | – | IC50 [1]: 0.1 to 0.4 µM |
| O=C(N=C1NCCCN1)c1ccc(Nc2cccc(C(=O)NCCC3CCCCC3)c2)cc1 [compound 24, N-(2-cyclohexylethyl)-3-((4-((tetrahydropyrimidin-2(1H)-ylidene)carbamoyl)phenyl)amino)benzamide] | 100 | – | IC50 [1]: 0.1 to 0.4 µM |
| Cc1cc(C(=O)N=C2NCCCN2)ccc1Nc1cccc(C(=O)NCCC2CCCC2)c1 [compound 28, 4-((3-((2-cyclopentylethyl)carbamoyl)phenyl)amino)-3-methyl-N-(tetrahydropyrimidin-2(1H)-ylidene)benzamide] | 97 | 0.308 | – |
| O=C(N=C1NCCCN1)c1ccc(Nc2cccc(C(=O)NCCC3CCC3)c2)cc1 [compound 26, N-(2-cyclobutylethyl)-3-((4-((tetrahydropyrimidin-2(1H)-ylidene)carbamoyl)phenyl)amino)benzamide] | 97 | – | – |
| Cc1cc(C(=O)N=C2NCCCN2)ccc1Nc1cccc(C(=O)NCCC(C)C)c1 [compound 27, 4-((3-(isopentylcarbamoyl)phenyl)amino)-3-methyl-N-(tetrahydropyrimidin-2(1H)-ylidene)benzamide] | 96 | 0.365 | – |
| O=C1CCN/C(=N\C(=O)c2ccc(Nc3cccc(OCC4CCCOC4)c3)c(C3CC3)c2)N1 (stereo not shown) [compound 134, 3-cyclopropyl-4-({3-[(oxan-3-yl)methoxy]phenyl}amino)-N-[(2E)-4-oxo-1,3-diazinan-2-ylidene]benzamide] | – | 0.265 | – |
| CC1(NC(=O)c2cccc(Nc3ccc(C(=O)/N=C4\NCCC(=O)N4)cc3C3CC3)c2)CC1 [compound 121, 3-cyclopropyl-4-({3-[(1-methylcyclopropyl)carbamoyl]phenyl}amino)-N-[(2E)-4-oxo-1,3-diazinan-2-ylidene]benzamide] | – | 0.139 | – |
| O=C(N=C1NCCCN1)c1ccc(Nc2cccc(C(=O)NCCC3CCCC3)c2)cc1 [compound 22, N-(2-cyclopentylethyl)-3-((4-((tetrahydropyrimidin-2(1H)-ylidene)carbamoyl)phenyl)amino)benzamide] | 94 | – | IC50 [1]: 0.1 to 0.4 µM |
| NC(=O)c1ncn([C@@H]2O[C@H](CO)[C@@H](O)[C@H]2O)n1 [Ribavirin, reference compound] | – | – | inhibition percentage (Ribavirin positive control) ([1]; Ribavirin as control in each measure): 100% |
| CC(C)CCNC(=O)c1cccc(Nc2ccc(C(=O)N=C3NCCCN3)cc2C(F)(F)F)c1 [compound 104, N-(1,3-diazinan-2-ylidene)-4-({3-[(3-methylbutyl)carbamoyl]phenyl}amino)-3-(trifluoromethyl)benzamide] | – | 0.05 | – |
| CC(C)NC(=O)c1ccccc1Nc1ccc(C(=O)/N=C2\NCCC(=O)N2)cc1C(C)(C)C [compound 100, 3-tert-butyl-N-[(2E)-4-oxo-1,3-diazinan-2-ylidene]-4-({2-[(propan-2-yl)carbamoyl]phenyl}amino)benzamide] | – | 0.037 | – |
| CC(C)CCNC(=O)c1ccccc1Nc1ccc(C(=O)N=C2NCCCN2)cc1C1CC1 [compound 147, 3-cyclopropyl-N-(1,3-diazinan-2-ylidene)-4-({2-[(3-methylbutyl)carbamoyl]phenyl}amino)benzamide] | – | 0.46 | – |
| Cc1c(Nc2ccc(C(=O)N=C3NCCCN3)cc2C2CC2)cccc1-c1ncc(Cl)[nH]1 [compound 141, 4-{[3-(5-chloro-1H-imidazol-2-yl)-2-methylphenyl]amino}-3-cyclopropyl-N-(1,3-diazinan-2-ylidene)benzamide] | – | 0.37 | – |
| Cc1c(N)cccc1Nc1ccc(C(=O)N=C2NCCCN2)cc1C1CC1 [compound 135, 4-[(3-amino-2-methylphenyl)amino]-3-cyclopropyl-N-(1,3-diazinan-2-ylidene)benzamide] | – | 0.286 | – |
| CC(C)NC(=O)c1cccc(Nc2ccc(C(=O)/N=C3\NCCC(=O)N3)cc2C(C)(C)C)c1 [compound 98, 3-tert-butyl-N-[(2E)-4-oxo-1,3-diazinan-2-ylidene]-4-({3-[(propan-2-yl)carbamoyl]phenyl}amino)benzamide] | – | 0.033 | – |
| CC(C)NC(=O)c1cccc(Nc2ccc(C(=O)N=C3NCCCN3)cc2C2CC2)c1 [compound 102, 3-cyclopropyl-N-(1,3-diazinan-2-ylidene)-4-({3-[(propan-2-yl)carbamoyl]phenyl}amino)benzamide] | – | 0.041 | – |
| CC(C)NC(=O)c1cccc(Nc2ccc(C(=O)/N=C3\NCCCN3C)cc2C2CC2)c1 [compound 108, 3-cyclopropyl-N-[(2E)-1-methyl-1,3-diazinan-2-ylidene]-4-({3-[(propan-2-yl)carbamoyl]phenyl}amino)benzamide] | – | 0.077 | – |
| CC(C)(C)NC(=O)c1cccc(Nc2ccc(C(=O)N=C3NCCCN3)cc2C2CC2)c1 [compound 123, 4-{[3-(tert-butylcarbamoyl)phenyl]amino}-3-cyclopropyl-N-(1,3-diazinan-2-ylidene)benzamide] | – | 0.147 | – |
| O=C(N=C1NCCCN1)c1ccc(Nc2ccccc2C(=O)NCCC(F)(F)F)c(C2CC2)c1 [compound 159, 3-cyclopropyl-N-(1,3-diazinan-2-ylidene)-4-({2-[(3,3,3-trifluoropropyl)carbamoyl]phenyl}amino)benzamide] | – | 1.1 | – |
| Cc1cc(C(=O)N=C2NCCCN2)ccc1Nc1cccc(OCCCC2CCCCC2)c1 [compound 156, 4-{[3-(3-cyclohexylpropoxy)phenyl]amino}-N-(1,3-diazinan-2-ylidene)-3-methylbenzamide] | – | 0.966 | – |
